A value given as a limit tells only on which side of the number the result lay.

Assay [1] relates to TNFα. Briefly: cells. Type of assay: cell-based, human. To be noted: Homo sapiens, Monocyte, LPS-stimulated human monocytes, TNFα content; read-out: EC50 TNF.
The target of assay [2] is IRAK4 enzyme (Homo sapiens (Human), UniProt Q9NWZ3). Briefly: biochemical. The following applies: IRAK4 enzyme, TR-FRET, 500 μM ATP. Type of assay: biochemical. Background: In TR-FRET formats the signal depends on donor and acceptor labels being close together.
Chain of IRAK4 enzyme (Q9NWZ3 whole entry): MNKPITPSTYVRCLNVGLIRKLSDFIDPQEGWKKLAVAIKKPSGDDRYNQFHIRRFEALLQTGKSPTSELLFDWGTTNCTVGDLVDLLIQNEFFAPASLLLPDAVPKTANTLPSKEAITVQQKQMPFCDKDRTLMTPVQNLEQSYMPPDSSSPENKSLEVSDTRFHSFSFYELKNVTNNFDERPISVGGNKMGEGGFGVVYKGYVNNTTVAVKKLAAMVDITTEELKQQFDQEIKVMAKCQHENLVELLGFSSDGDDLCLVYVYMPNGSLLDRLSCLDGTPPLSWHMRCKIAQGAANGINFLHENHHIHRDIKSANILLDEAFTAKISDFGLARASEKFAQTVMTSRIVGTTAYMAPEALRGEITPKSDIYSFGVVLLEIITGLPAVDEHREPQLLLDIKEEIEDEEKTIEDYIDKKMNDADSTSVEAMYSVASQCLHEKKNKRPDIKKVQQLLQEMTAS

Consider `CC(C)(O)[C@H](F)CNC(=O)c1cnc(-c2ccc3cc(C#N)cnn23)cc1NC1CC2(CCC2)C1` [Example 99, (R)-6-(3-cyanopyrrolo[1,2-b]pyridazin-7-yl)-N-(2-fluoro-3-hydroxy-3-methylbutyl)-4-(spiro[3.3]heptan-2-ylamino)nicotinamide], for which the EC50 in assay [1] amounted to 130 nM. For the same compound, half-maximal inhibition in assay [2] (IC50) was put at 1 nM.

For `COCCNc1cc(-c2ccc3cc(C#N)cnn23)ncc1C(=O)NC[C@@H](F)C(C)(C)O` [Example 100, (R)-6-(3-cyanopyrrolo[1,2-b]pyridazin-7-yl)-N-(2-fluoro-3-hydroxy-3-methylbutyl)-4-((2-methoxyethyl)amino) nicotinamide], the half-maximal effective concentration (EC50) in assay [1] was found to be 195 nM. Also, the midpoint of inhibition in assay [2], the IC50, lay at 4 nM.

As for `CC(C)(O)[C@H](F)CNC(=O)c1cnc(-c2ccc3cc(C#N)cnn23)cc1N[C@H]1C[C@@H]2CC[C@H]1C2` [Example 101, 4-(((1S,2S,4R)-bicyclo[2.2.1]heptan-2-yl)amino)-6-(3-cyanopyrrolo[1,2-b]pyridazin-7-yl)-N-((R)-2-fluoro-3-hydroxy-3-methylbutyl) nicotinamide], in assay [1], the EC50 is 82 nM. In assay [2], this compound gave an IC50 of less than 1 nM.

`CC(C)(O)[C@H](F)CNC(=O)c1cnc(-c2ccc3cc(C#N)cnn23)cc1NCCCS(C)(=O)=O` [Example 103, (R)-6-(3-cyanopyrrolo[1,2-b]pyridazin-7-yl)-N-(2-fluoro-3-hydroxy-3-methylbutyl)-4-((3-(methylsulfonyl)propyl)amino)nicotinamide]: in assay [1], the concentration for a half-maximal effect (EC50) amounted to 75 nM. Besides, the half-inhibitory concentration (IC50) in assay [2] is less than 1 nM.

On to `Cn1cc(CNc2cc(-c3ccc4cc(C#N)cnn34)ncc2C(=O)NC[C@@H](F)C(C)(C)O)cn1` [Example 104, (R)-6-(3-cyanopyrrolo[1,2-b]pyridazin-7-yl)-N-(2-fluoro-3-hydroxy-3-methylbutyl)-4-(((1-methyl-1H-pyrazol-4-yl)methyl)amino) nicotinamide], for which the concentration for a half-maximal effect (EC50) in assay [1] came out at 274 nM. Besides, the IC50 in assay [2] worked out at 6 nM.

`CC(C)(O)[C@H](F)CNC(=O)c1cnc(-c2ccc3cc(C#N)cnn23)cc1NCc1c[nH]cn1` [Example 105, (R)-4-(((1H-imidazol-4-yl)methyl)amino)-6-(3-cyanopyrrolo[1,2-b]pyridazin-7-yl)-N-(2-fluoro-3-hydroxy-3-methylbutyl)nicotinamide]: the concentration for a half-maximal effect (EC50) in assay [1] was determined as 3160 nM. The same compound registered an IC50 in assay [2] of 9 nM.

As to `CC(C)(O)[C@H](F)CNC(=O)c1cnc(-c2ccc3cc(C#N)cnn23)cc1NC[C@H]1CCC(=O)N1` [Example 106, 6-(3-cyanopyrrolo[1,2-b]pyridazin-7-yl)-N-((R)-2-fluoro-3-hydroxy-3-methylbutyl)-4-((((R)-5-oxopyrrolidin-2-yl)methyl)amino) nicotinamide], in assay [1], the EC50 amounted to 1380 nM. The same compound had a concentration for half-maximal inhibition (IC50) in assay [2] of 3 nM.

As for `Cc1noc(C)c1CNc1cc(-c2ccc3cc(C#N)cnn23)ncc1C(=O)NC[C@@H](F)C(C)(C)O` [Example 107, (R)-6-(3-cyanopyrrolo[1,2-b]pyridazin-7-yl)-4-(((3,5-dimethylisoxazol-4-yl)methyl)amino)-N-(2-fluoro-3-hydroxy-3-methylbutyl) nicotinamide], the 50% effective concentration (EC50) in assay [1] was determined as 961 nM. In addition, it took 17 nM to reach half-maximal inhibition in assay [2] (IC50).

With `CNC(=O)[C@H](C)Nc1cc(-c2ccc3cc(C#N)cnn23)ncc1C(=O)NC[C@@H](F)C(C)(C)O` [Example 108, 6-(3-cyanopyrrolo[1,2-b]pyridazin-7-yl)-N-((R)-2-fluoro-3-hydroxy-3-methylbutyl)-4-(((S)-1-(methylamino)-1-oxopropan-2-yl)amino) nicotinamide], the EC50 in assay [1] is more than 10000 nM. The same compound gave a concentration for half-maximal inhibition (IC50) in assay [2] of 88 nM.

As to `CC(C)(O)[C@H](F)CNC(=O)c1cnc(-c2ccc3cc(C#N)cnn23)cc1N[C@H]1CCN(C2COC2)C1` [Example 110, 6-(3-cyanopyrrolo[1,2-b]pyridazin-7-yl)-N-((R)-2-fluoro-3-hydroxy-3-methylbutyl)-4-(((S)-1-(oxetan-3-yl)pyrrolidin-3-yl)amino) nicotinamide], in assay [1], the EC50 was determined as 191 nM. In assay [2], this compound gave an IC50 of 4 nM.

For the compound `COCC1(Nc2cc(-c3ccc4cc(C#N)cnn34)ncc2C(=O)NC[C@@H](F)C(C)(C)O)CC1` [Example 112, (R)-6-(3-cyano-pyrrolo[1,2-b]pyridazin-7-yl)-N-(2-fluoro-3-hydroxy-3-methylbutyl)-4-((1-(methoxymethyl)cyclopropyl)amino)nicotinanide], in assay [1], the EC50 came out at 399 nM. The compound also came in with an IC50 in assay [2] of 4 nM.

In the case of `CC(C)(O)[C@H](F)CNC(=O)c1cnc(-c2ccc3cc(C#N)cnn23)cc1N[C@H]1C[C@@H]2C[C@H]1CN2S(C)(=O)=O` [Example 113, 6-(3-cyanopyrrolo[1,2-b]pyridazin-7-yl)-N-((R)-2-fluoro-3-hydroxy-3-methylbutyl)-4-(((1S,4S,5S)-2-(methylsulfonyl)-2-azabicyclo[2.2.1]heptan-5-yl)amino)nicotinamide], the EC50 in assay [1] was found to be 3670 nM. In assay [2], 22 nM corresponded to half-maximal inhibition (IC50).

As for `CN1CCC(Nc2cc(-c3ccc4cc(C#N)cnn34)ncc2C(=O)NC[C@@H](F)C(C)(C)O)CC1` [Example 114, (R)-6-(3-cyanopyrrolo[1,2-b]pyridazin-7-yl)-N-(2-fluoro-3-hydroxy-3-methylbutyl)-4-((1-methylpiperidin-4-yl)amino)nicotinamide], the EC50 in assay [1] was 177 nM. Moreover, it took 4 nM to reach half-maximal inhibition in assay [2] (IC50).

As for `CC(C)(O)[C@H](F)CNC(=O)c1cnc(-c2ccc3cc(C#N)cnn23)cc1NC1CCN(C2CC2)CC1` [Example 115, (R)-6-(3-cyanopyrrolo[1,2-b]pyridazin-7-yl)-4-((1-cyclopropylpiperidin-4-yl)amino)-N-(2-fluoro-3-hydroxy-3-methylbutyl)nicotinamide], the half-maximal effective concentration (EC50) in assay [1] stood at 196 nM. The same compound gave an IC50 in assay [2] of 4 nM.

With `CC(C)Nc1cc(-c2ccc3cc(C#N)cnn23)ncc1C(=O)NCC(F)(F)C(C)(C)O` [Example 116, 6-(3-cyanopyrrolo[1,2-b]pyridazin-7-yl)-N-(2,2-difluoro-3-hydroxy-3-methylbutyl)-4-(isopropylamino) nicotinamide], the 50% effective concentration (EC50) in assay [1] turned out to be 98 nM. Besides, the IC50 in assay [2] is less than 1 nM.

As for `CC(C)(O)[C@H](F)CNC(=O)c1cnc(-c2ccc3cc(C#N)cnn23)cc1NC1CCC1` [Example 117, (R)-6-(3-cyanopyrrolo[1,2-b]pyridazin-7-yl)-4-(cyclobutyl-amino)-N-(2-fluoro-3-hydroxy-3-methylbutyl) nicotinamide], the half-maximal effective concentration (EC50) in assay [1] came to 47 nM. This compound displayed an IC50 in assay [2] of less than 1 nM.

Consider `CC1(Nc2cc(-c3ccc4cc(C#N)cnn34)ncc2C(=O)NC[C@@H](F)C(C)(C)O)CC1` [Example 118, (R)-6-(3-cyanopyrrolo[1,2-b]pyridazin-7-yl)-N-(2-fluoro-3-hydroxy-3-methylbutyl)-4-((1-methylcyclopropyl)amino) nicotinamide], for which the concentration giving a half-maximal response (EC50) in assay [1] came out at 25 nM. The compound also displayed a 50% inhibitory concentration (IC50) in assay [2] of less than 1 nM.

As for `COCCn1cc(Nc2cc(-c3ccc4cc(C#N)cnn34)ncc2C(=O)NC[C@@H](F)C(C)(C)O)cn1` [Example 119, (R)-6-(3-cyanopyrrolo[1,2-b]pyridazin-7-yl)-N-(2-fluoro-3-hydroxy-3-methylbutyl)-4-((1-(2-methoxyethyl)-1H-pyrazol-4-yl)amino) nicotinamide], the EC50 in assay [1] amounted to 32 nM. This compound yielded an IC50 in assay [2] of less than 1 nM.

Regarding `CC(C)Nc1cc(-c2ccc3cc(C#N)cnn23)ncc1C(=O)N[C@H]1C[C@@](C)(O)C1` [Example 120, 6-(3-cyanopyrrolo[1,2-b]pyridazin-7-yl)-N-((1s,3s)-3-hydroxy-3-methylcyclobutyl)-4-(isopropylamino) nicotinamide], in assay [1], the half-maximal effective concentration (EC50) came out at 430 nM. Besides, half-maximal inhibition in assay [2] (IC50) was put at 8 nM.

Turning to `CC(C)Nc1cc(-c2ccc3cc(C#N)cnn23)ncc1C(=O)NCC1CCS(=O)(=O)CC1` [Example 121, 6-(3-cyanopyrrolo[1,2-b]pyridazin-7-yl)-N-((1,1-dioxidotetrahydro-2H-thiopyran-4-yl)methyl)-4-(isopropylamino) nicotinamide], the EC50 in assay [1] was 365 nM. In assay [2], the half-inhibitory concentration (IC50) worked out at 7 nM.

Regarding `CC(C)Nc1cc(-c2ccc3cc(C#N)cnn23)ncc1C(=O)NCC1(O)CCS(=O)(=O)C1` (centres unmarked) [Example 122, 6-(3-cyanopyrrolo[1,2-b]pyridazin-7-yl)-N-((3-hydroxy-1,1-dioxidotetrahydrothiophen-3-yl)methyl)-4-(isopropylamino)nicotinamide], in assay [1], the EC50 was 867 nM. In assay [2], this compound came in with a half-inhibitory concentration (IC50) of 17 nM.

As to `CC(C)Nc1cc(-c2ccc3cc(C#N)cnn23)ncc1C(=O)NC1CCS(=O)(=O)C1` (centres unmarked) [Example 123, 6-(3-cyanopyrrolo[1,2-b]pyridazin-7-yl)-N-(1,1-dioxidotetrahydrothiophen-3-yl)-4-(isopropylamino) nicotinamide], the concentration for a half-maximal effect (EC50) in assay [1] is 421 nM. This compound showed a concentration for half-maximal inhibition (IC50) in assay [2] of 6 nM.

Take `CC(=O)N[C@H]1C[C@H](NC(=O)c2cnc(-c3ccc4cc(C#N)cnn34)cc2NC(C)C)C1` [Example 124, N-((1r,3r)-3-acetamido-cyclobutyl)-6-(3-cyano-pyrrolo[1,2-b]pyridazin-7-yl)-4-(isopropylamino) nicotinamide]: the 50% effective concentration (EC50) in assay [1] was 182 nM. This compound also showed an IC50 in assay [2] of 3 nM.

As to `CC(C)Nc1cc(-c2ccc3cc(C#N)cnn23)ncc1C(=O)N[C@H]1CC[C@H](NC(=O)C2CC2)CC1` [Example 125, 6-(3-cyanopyrrolo[1,2-b]pyridazin-7-yl)-N-((1r,4r)-4-(cyclopropane-carboxamido)cyclohexyl)-4-(isopropyl-amino)nicotinamide], the EC50 in assay [1] turned out to be 114 nM. Also, the half-inhibitory concentration (IC50) in assay [2] turned out to be 1 nM.

Regarding `CC(C)Nc1cc(-c2ccc3cc(C#N)cnn23)ncc1C(=O)N[C@H]1CC[C@H](NC(=O)N2CCOCC2)CC1` [Example 126, N-((1r,4r)-4-(6-(3-cyano-pyrrolo[1,2-b]pyridazin-7-yl)-4-(isopropylamino)nicotinamido)cyclohexyl) morpholine-4-carboxamide], the EC50 in assay [1] is 92 nM. Also, in assay [2], the concentration for half-maximal inhibition (IC50) came to 1 nM.

In general, EC50 refers to the concentration needed to bring the measured effect to its halfway point. By IC50 is commonly meant the concentration that inhibits the measured activity by half. A low value points to greater potency.

Source of the values: patent publication US10336762B2 (priority 2017, dated 2019).
